Measurements as given in PubChem BioAssay (NCI).
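1) Cells in 96-well plates. 2) Compound, 48 h, 5 concentrations. 3) Linear interpolation between surrounding doses. 4) Unreached endpoint = highest concentration. GI50 is the concentration that inhibits growth by half. Definition used: TGI = concentration required for complete inhibition of growth.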

Key:
Test in all cases: inhibition of tumour cell growth, NCI panel, 48 h
786-0 renal = system: 786-0 renal
A498 renal = system: A498 renal
A549 NSCLC = system: A549 NSCLC
ACHN renal = system: ACHN renal
BT-549 breast = system: BT-549 breast
CAKI-1 renal = system: CAKI-1 renal
CCRF-CEM leukemia = system: CCRF-CEM leukemia
COLO 205 colon = system: COLO 205 colon
DU-145 prostate = system: DU-145 prostate
EKVX NSCLC = system: EKVX NSCLC
HCC-2998 colon = system: HCC-2998 colon
HCT-116 colon = system: HCT-116 colon
HCT-15 colon = system: HCT-15 colon
HL-60(TB) leukemia = system: HL-60(TB) leukemia
HOP-62 NSCLC = system: HOP-62 NSCLC
HOP-92 NSCLC = system: HOP-92 NSCLC
HS 578T breast = system: HS 578T breast
HT29 colon = system: HT29 colon
IGROV1 ovarian = system: IGROV1 ovarian
K-562 leukemia = system: K-562 leukemia
KM12 colon = system: KM12 colon
LOX IMVI melanoma = system: LOX IMVI melanoma
M14 melanoma = system: M14 melanoma
MALME-3M melanoma = system: MALME-3M melanoma
MCF7 breast = system: MCF7 breast
MDA-MB-231 breast = system: MDA-MB-231 breast
MDA-MB-435 = system: MDA-MB-435
MOLT-4 leukemia = system: MOLT-4 leukemia
NCI-H226 lung = system: NCI-H226 lung
NCI-H23 lung = system: NCI-H23 lung
NCI-H460 lung = system: NCI-H460 lung
NCI-H522 lung = system: NCI-H522 lung
NCI/ADR-RES ovarian = system: NCI/ADR-RES ovarian
OVCAR-3 ovarian = system: OVCAR-3 ovarian
OVCAR-5 ovarian = system: OVCAR-5 ovarian
OVCAR-8 ovarian = system: OVCAR-8 ovarian
PC-3 prostate = system: PC-3 prostate
RPMI-8226 leukemia = system: RPMI-8226 leukemia
RXF 393 renal = system: RXF 393 renal
SF-268 CNS = system: SF-268 CNS
SF-295 CNS = system: SF-295 CNS
SF-539 CNS = system: SF-539 CNS
SK-MEL-2 melanoma = system: SK-MEL-2 melanoma
SK-MEL-28 melanoma = system: SK-MEL-28 melanoma
SK-MEL-5 melanoma = system: SK-MEL-5 melanoma
SK-OV-3 ovarian = system: SK-OV-3 ovarian
SN12C renal = system: SN12C renal
SNB-19 CNS = system: SNB-19 CNS
SNB-75 CNS = system: SNB-75 CNS
SR leukemia = system: SR leukemia
SW-620 colon = system: SW-620 colon
T-47D breast = system: T-47D breast
TK-10 renal = system: TK-10 renal
U251 CNS = system: U251 CNS
UACC-257 melanoma = system: UACC-257 melanoma
UACC-62 melanoma = system: UACC-62 melanoma
UO-31 renal = system: UO-31 renal

CC(C)(C)c1ccc(CC(=O)Nc2sc3c(c2C(N)=O)CCC(=O)C3)cc1
GI50 (786-0 renal): 1.39 µM
TGI (786-0 renal): 11.8 µM
GI50 (A498 renal): 2.05 µM
TGI (A498 renal): 6.97 µM
GI50 (A549 NSCLC): 1.99 µM
TGI (A549 NSCLC): 6.92 µM
GI50 (ACHN renal): 0.374 µM
TGI (ACHN renal): 1.31 µM
GI50 (BT-549 breast): 0.48 µM
TGI (BT-549 breast): 2.4 µM
GI50 (CAKI-1 renal): 0.395 µM
TGI (CAKI-1 renal): 3.01 µM
GI50 (CCRF-CEM leukemia): 0.137 µM
TGI (CCRF-CEM leukemia): 3.62 µM
GI50 (COLO 205 colon): 1.33 µM
TGI (COLO 205 colon): 3.02 µM
GI50 (DU-145 prostate): 3.17 µM
TGI (DU-145 prostate): 14 µM
GI50 (EKVX NSCLC): 0.549 µM
TGI (EKVX NSCLC): 3.54 µM
GI50 (HCC-2998 colon): 1.49 µM
TGI (HCC-2998 colon): 3.88 µM
GI50 (HCT-116 colon): 0.26 µM
TGI (HCT-116 colon): 1.29 µM
GI50 (HCT-15 colon): 0.295 µM
TGI (HCT-15 colon): 2.11 µM
GI50 (HL-60(TB) leukemia): 0.423 µM
TGI (HL-60(TB) leukemia): 3.11 µM
GI50 (HOP-62 NSCLC): 2.69 µM
TGI (HOP-62 NSCLC): 13.2 µM
GI50 (HOP-92 NSCLC): 0.464 µM
TGI (HOP-92 NSCLC): 1.85 µM
GI50 (HS 578T breast): 1.98 µM
TGI (HS 578T breast): 10.9 µM
GI50 (HT29 colon): 0.871 µM
TGI (HT29 colon): 8.43 µM
GI50 (IGROV1 ovarian): 0.532 µM
TGI (IGROV1 ovarian): 3.1 µM
GI50 (K-562 leukemia): 0.233 µM
TGI (K-562 leukemia): 4.94 µM
GI50 (KM12 colon): 0.88 µM
TGI (KM12 colon): 3.16 µM
GI50 (LOX IMVI melanoma): 0.46 µM
TGI (LOX IMVI melanoma): 3.41 µM
GI50 (M14 melanoma): 0.435 µM
TGI (M14 melanoma): 2.69 µM
GI50 (MALME-3M melanoma): 0.692 µM
TGI (MALME-3M melanoma): 2.35 µM
GI50 (MCF7 breast): 0.433 µM
TGI (MCF7 breast): 6.66 µM
GI50 (MDA-MB-231 breast): 1.17 µM
TGI (MDA-MB-231 breast): 3.29 µM
GI50 (MDA-MB-435): 1.3 µM
TGI (MDA-MB-435): 4.21 µM
GI50 (MOLT-4 leukemia): 0.569 µM
TGI (MOLT-4 leukemia): 8.21 µM
GI50 (NCI-H226 lung): 1.7 µM
TGI (NCI-H226 lung): 4.14 µM
GI50 (NCI-H23 lung): 0.34 µM
TGI (NCI-H23 lung): 3.59 µM
GI50 (NCI-H460 lung): 1.03 µM
TGI (NCI-H460 lung): 8.06 µM
GI50 (NCI-H522 lung): 0.283 µM
TGI (NCI-H522 lung): 2.59 µM
GI50 (NCI/ADR-RES ovarian): 0.621 µM
TGI (NCI/ADR-RES ovarian): 5.11 µM
GI50 (OVCAR-3 ovarian): 0.541 µM
TGI (OVCAR-3 ovarian): 2.09 µM
GI50 (OVCAR-5 ovarian): 0.901 µM
TGI (OVCAR-5 ovarian): 2.99 µM
GI50 (OVCAR-8 ovarian): 0.458 µM
TGI (OVCAR-8 ovarian): 24.7 µM
GI50 (PC-3 prostate): 0.207 µM
TGI (PC-3 prostate): 1.9 µM
GI50 (RPMI-8226 leukemia): 0.221 µM
TGI (RPMI-8226 leukemia): 0.691 µM
GI50 (RXF 393 renal): 0.594 µM
TGI (RXF 393 renal): 1.98 µM
GI50 (SF-268 CNS): 2.82 µM
TGI (SF-268 CNS): 12.7 µM
GI50 (SF-295 CNS): 1.18 µM
TGI (SF-295 CNS): 3.18 µM
GI50 (SF-539 CNS): 0.421 µM
TGI (SF-539 CNS): 1.67 µM
GI50 (SK-MEL-2 melanoma): 2.29 µM
TGI (SK-MEL-2 melanoma): 6.64 µM
GI50 (SK-MEL-28 melanoma): 1.38 µM
TGI (SK-MEL-28 melanoma): 3.16 µM
GI50 (SK-MEL-5 melanoma): 1.23 µM
TGI (SK-MEL-5 melanoma): 2.58 µM
GI50 (SK-OV-3 ovarian): 2.77 µM
TGI (SK-OV-3 ovarian): 8.04 µM
GI50 (SN12C renal): 1.04 µM
TGI (SN12C renal): 3.91 µM
GI50 (SNB-19 CNS): 1.09 µM
TGI (SNB-19 CNS): 4.69 µM
GI50 (SNB-75 CNS): 1.3 µM
TGI (SNB-75 CNS): 4.28 µM
GI50 (SR leukemia): 0.132 µM
GI50 (SW-620 colon): 0.386 µM
TGI (SW-620 colon): 2.16 µM
GI50 (T-47D breast): 0.368 µM
TGI (T-47D breast): 2.67 µM
GI50 (TK-10 renal): 0.473 µM
TGI (TK-10 renal): 8.48 µM
GI50 (U251 CNS): 0.389 µM
TGI (U251 CNS): 2.25 µM
GI50 (UACC-257 melanoma): 2.04 µM
TGI (UACC-257 melanoma): 5.86 µM
GI50 (UACC-62 melanoma): 0.54 µM
TGI (UACC-62 melanoma): 2.07 µM
GI50 (UO-31 renal): 0.43 µM
TGI (UO-31 renal): 1.68 µM
